Test results: US11230538B2, “Herbicides” (SYNGENTA PARTICIPATIONS AG, priority 2016, dated 2022)

Columns and labels:
Assay type in all cases: in vivo
[1] = test system: Alopecurus myosuroides (ALOMY); assay: B1 Pre-emergence herbicidal activity; set-up: key: 5=total damage to plant; 0=no damage to plant; settings: pre-emergence application, evaluated after 13 days
Procedure, shortened: (§1)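 Test species received a pre-emergence application one day post-sowing in an acetone/water solution with 0.5% Tween 20. Phytotoxicity was assessed 13 days later on a scale where 0 means no damage and 5 total plant death.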

Avena fatua (AVEFA) [2] = assay: B1 Pre-emergence herbicidal activity; set-up: key: 5=total damage to plant; 0=no damage to plant; settings: pre-emergence application, evaluated after 13 days
Procedure, shortened: as §1

[3] = test system: Triticum aestivium (TRZAW); assay: B1 Pre-emergence herbicidal activity; set-up: key: 5=total damage to plant; 0=no damage to plant; settings: pre-emergence application, evaluated after 13 days
Procedure, shortened: as §1

[4] = test system: Echinochloa crus-galli (ECHCG); assay: B1 Pre-emergence herbicidal activity; set-up: key to Pre-emergence herbicidal activity, ECHCG (damage score 0-5): 5=total damage to plant; 0=no damage to plant; settings: pre-emergence application, evaluated after 13 days
Procedure, shortened: as §1

Lolium perenne (LOLPE) [5] = assay: B1 Pre-emergence herbicidal activity; set-up: key to Pre-emergence herbicidal activity, LOLPE (damage score 0-5): 5=total damage to plant; 0=no damage to plant; settings: pre-emergence application, evaluated after 13 days
Procedure, shortened: as §1

Setaria fabenr (SETFA) = assay: B1 Pre-emergence herbicidal activity; set-up: key to Pre-emergence herbicidal activity, SETFA (damage score 0-5): 5=total damage to plant; 0=no damage to plant; settings: pre-emergence application, evaluated after 13 days
Procedure, shortened: as §1

Avena fatua (AVEFA) [6] = assay: B2 Post-emergence herbicidal activity; settings: post-emergence application, evaluated after 13 days
Procedure, shortened: (§2)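 Scores run from 0 for undamaged to 5 for fully killed plants, assessed 13 days post-spray. Application was post-emergence at 8 days of growth, using an acetone/water (50:50), 0.5% Tween 20 spray solution; growth at 24 °C day, 16 °C night, 65% humidity.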

[7] = test system: Echinochloa crus-galli (ECHCG); assay: B2 Post-emergence herbicidal activity; set-up: key to Post-emergence herbicidal activity, ECHCG (damage score 0-5): 5=total damage to plant; 0=no damage to plant; settings: post-emergence application, evaluated after 13 days
Procedure, shortened: as §2

Lolium perenne (LOLPE) [8] = assay: B2 Post-emergence herbicidal activity; settings: post-emergence application, evaluated after 13 days
Procedure, shortened: as §2

[9] = test system: Alopecurus myosuroides (ALOMY); assay: B2 Post-emergence herbicidal activity; set-up: key: 5=total damage to plant; 0=no damage to plant; settings: post-emergence application, evaluated after 13 days
Procedure, shortened: as §2

Setaria fabenri (SETFA) = assay: B2 Post-emergence herbicidal activity; set-up: key: 5=total damage to plant; 0=no damage to plant; settings: post-emergence application, evaluated after 13 days
Procedure, shortened: as §2

[10] = test system: Triticum aestivium (TRZAW); assay: B2 Post-emergence herbicidal activity; set-up: key: 5=total damage to plant; 0=no damage to plant; settings: post-emergence application, evaluated after 13 days
Procedure, shortened: as §2

Row | Compound | Pre-emergence herbicidal activity, ALOMY (damage score 0-5) ([1]; rate 1000 g/ha) | Pre-emergence herbicidal activity, AVEFA (damage score 0-5) (Avena fatua (AVEFA) [2]; rate 1000 g/ha) | Pre-emergence herbicidal activity, TRAZW (damage score 0-5) ([3]; rate 1000 g/ha) | Pre-emergence herbicidal activity, ECHCG (damage score 0-5) ([4]; rate 1000 g/ha) | Pre-emergence herbicidal activity, LOLPE (damage score 0-5) (Lolium perenne (LOLPE) [5]; rate 1000 g/ha) | Pre-emergence herbicidal activity, SETFA (damage score 0-5) (Setaria fabenr (SETFA); rate 1000 g/ha) | Post-emergence herbicidal activity, AVEFA (damage score 0-5) (Avena fatua (AVEFA) [6]; rate 1000 g/ha) | Post-emergence herbicidal activity, ECHCG (damage score 0-5) ([7]; rate 1000 g/ha) | Post-emergence herbicidal activity, LOLPE (damage score 0-5) (Lolium perenne (LOLPE) [8]; rate 1000 g/ha) | Post-emergence herbicidal activity, ALOMY (damage score 0-5) ([9]; rate 1000 g/ha) | Post-emergence herbicidal activity, SETFA (damage score 0-5) (Setaria fabenri (SETFA); rate 1000 g/ha) | Post-emergence herbicidal activity, TRAZW (damage score 0-5) ([10]; rate 1000 g/ha) | further results
1 | C#CCN(C(=O)CC)c1ccc(-c2cncc(F)c2)nc1C(F)(F)F [Compound C94] | 0 | 1 | 0 | 2 | 1 | 5 | 2 | 4 | 2 | 0 | 5 | 0 | –
2 | CCC(=O)N(CCCN(CC)CC)c1ccc(-c2cncc(F)c2)nc1C(F)(F)F [Compound C95] | 0 | 1 | 0 | 3 | 1 | 4 | 2 | 5 | 2 | 1 | 5 | 1 | –
3 | CCC(=O)N(COCC(C)(C)C)c1ccc(-c2cncc(F)c2)nc1C(F)(F)F [Compound C99] | 0 | 1 | 0 | 2 | 1 | 5 | 2 | 4 | 2 | 0 | 5 | 0 | –
4 | O=C(c1ccccc1)N(CC1CC1)c1ccc(-c2cncc(F)c2)nc1C(F)(F)F [Compound C103] | 0 | 0 | 0 | 0 | 0 | 1 | 2 | 1 | 1 | 0 | 2 | 0 | –
5 | O=C(Nc1ccc(-c2cncnc2)nc1C(F)(F)F)C1CC1 [Compound C109] | 0 | 2 | 0 | 4 | 1 | 4 | 3 | 5 | 2 | 0 | 5 | 1 | –
6 | O=C1CCC(=O)N1c1ccc(-c2cncnc2)nc1C(F)(F)F [Compound C110] | 0 | 3 | 0 | 4 | 1 | 4 | 3 | 5 | 2 | 0 | 5 | 1 | –
7 | O=C(Nc1ccc(-c2cncc(F)c2)nc1C(F)(F)F)C1CCCC1 [Compound C111] | 1 | 2 | 0 | 4 | 1 | 5 | 4 | 5 | 2 | 1 | 5 | 0 | –
8 | O=CNc1ccc(-c2cncc(F)c2)nc1C(F)(F)F [Compound C112] | 1 | 2 | 0 | 3 | 1 | 4 | 3 | 4 | 3 | 0 | 1 | 1 | –
9 | O=C(O)CCC(=O)Nc1ccc(-c2cncc(F)c2)nc1C(F)(F)F [Compound C113, 4-[[6-(5-fluoro-3-pyridyl)-2-(trifluoromethyl)-3-pyridyl]amino]-4-oxo-butanoic acid] | 0 | 2 | 0 | 5 | 1 | 5 | 4 | 5 | 3 | 1 | 5 | 3 | –
10 | COCC(=O)Nc1ccc(-c2cncc(F)c2)nc1C#N [Compound C114, N-[2-cyano-6-(5-fluoro-3-pyridyl)-3-pyridyl]-2-methoxy-acetamide] | 0 | 1 | 0 | 4 | 0 | 5 | 2 | 4 | 1 | 1 | 5 | 1 | –
11 | CCC(=O)Nc1ccc(-c2cncc(F)c2)nc1C#N [Compound C115] | 0 | 0 | 0 | 5 | 1 | 5 | 2 | 4 | 1 | 0 | 5 | 0 | –
12 | O=C(Nc1ccc(-c2cncc(F)c2)nc1C(F)(F)F)c1nccs1 [Compound C117] | – | – | – | – | – | – | – | – | – | – | – | – | Pre-emergence herbicidal activity, ALOMY (damage score 0-5) ([1]; rate 250 g/ha): 0; Pre-emergence herbicidal activity, AVEFA (damage score 0-5) (Avena fatua (AVEFA) [2]; rate 250 g/ha): 0; Pre-emergence herbicidal activity, TRAZW (damage score 0-5) ([3]; rate 250 g/ha): 0; Pre-emergence herbicidal activity, ECHCG (damage score 0-5) ([4]; rate 250 g/ha): 1; Pre-emergence herbicidal activity, LOLPE (damage score 0-5) (Lolium perenne (LOLPE) [5]; rate 250 g/ha): 0; Pre-emergence herbicidal activity, SETFA (damage score 0-5) (Setaria fabenr (SETFA); rate 250 g/ha): 2; Post-emergence herbicidal activity, AVEFA (damage score 0-5) (Avena fatua (AVEFA) [6]; rate 250 g/ha): 3; Post-emergence herbicidal activity, ECHCG (damage score 0-5) ([7]; rate 250 g/ha): 1; Post-emergence herbicidal activity, LOLPE (damage score 0-5) (Lolium perenne (LOLPE) [8]; rate 250 g/ha): 1; Post-emergence herbicidal activity, ALOMY (damage score 0-5) ([9]; rate 250 g/ha): 1; Post-emergence herbicidal activity, SETFA (damage score 0-5) (Setaria fabenri (SETFA); rate 250 g/ha): 4; Post-emergence herbicidal activity, TRAZW (damage score 0-5) ([10]; rate 250 g/ha): 0
